Reference: US20240409585A1, “MACROCYCLIC IMMUNOMODULATORS” (priority 2021, published 2024)
Bridge positions count the residues as written; N and C are the ends. Square brackets hold non-standard residues; d marks the D form. Peptide text beside a SMILES is read from it. Bip = N[C@@H](Cc1ccc(-c2ccccc2)cc1)C(=O)O; Phe(3-Me) = Cc1cccc(C[C@H](N)C(=O)O)c1; Val(3-OH) = CC(C)(O)[C@H](N)C(=O)O; Cha = N[C@@H](CC1CCCCC1)C(=O)O; Cit = NC(=O)NCCC[C@H](N)C(=O)O; NMeA = CN[C@@H](C)C(=O)O; Dab = NCC[C@H](N)C(=O)O

target: T1, PE-labeled human PD-L1-Ig binding to Jurkat cell line over-expressing human PD-1 (Jurkat-PD-1) (Homo sapiens, UniProt Q15116); assay: Jurkat-PD-1 Cell Binding High-Content Screening Assay (CBA): Method 1; conditions: Jurkat-hPD-1 cells, PE-labeled PD-L1-Ig 20 nM final; read-out: Jurkat HPDL1 PD1 IC50 (uM) (Method 1)
T1 construct: expressed in transfected cells; host or cells: Jurkat
T1 sequence (Q15116 25-288): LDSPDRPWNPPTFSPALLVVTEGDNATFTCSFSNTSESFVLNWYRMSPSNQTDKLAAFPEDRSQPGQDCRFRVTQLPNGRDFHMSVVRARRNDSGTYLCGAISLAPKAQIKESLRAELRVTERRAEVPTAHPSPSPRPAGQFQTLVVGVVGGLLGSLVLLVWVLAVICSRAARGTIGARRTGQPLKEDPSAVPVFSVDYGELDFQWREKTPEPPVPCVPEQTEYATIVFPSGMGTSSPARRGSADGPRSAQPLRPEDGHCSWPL

Row | SMILES | IC50
1 | CC[C@H](C)[C@@H]1NC(=O)[C@H](Cc2ccc(-c3ccccc3)cc2)NC(=O)[C@H](C(C)(C)O)NC(=O)[C@H](Cc2cccc(C)c2)NC(=O)[C@H](CC(=O)O)NC(=O)[C@H](Cc2ccc(O)cc2)NC(=O)[C@H](CC(N)=O)NC(=O)CSC[C@@H](C(=O)N[C@@H](CCN)C(N)=O)NC(=O)[C@H]([C@@H](C)O)NC(=O)[C@H](C(C)C)NC(=O)[C@H](CC2CCCCC2)NC(=O)[C@H](CCN)NC(=O)[C@@H](CC(C)C)NC(=O)[C@H](C)N(C)C1=O [Compound 1691] ({CH2CO}-NYD[Phe(3-Me)][Val(3-OH)][Bip]I[NMeA][dL][Dab][Cha]VTC[Dab]-NH2; thioether N-14) | 0.02 µM
2 | CC[C@H](C)[C@@H]1NC(=O)[C@H](Cc2ccc(-c3ccccc3)cc2)NC(=O)[C@H](C(C)(C)O)NC(=O)[C@H](Cc2cccc(C)c2)NC(=O)[C@H](CC(=O)O)NC(=O)[C@H](Cc2ccc(O)cc2)NC(=O)[C@H](CC(N)=O)NC(=O)CSC[C@@H](C(=O)N[C@@H](CCN)C(N)=O)NC(=O)[C@H]([C@@H](C)O)NC(=O)[C@H](C(C)(C)O)NC(=O)[C@H](CC2CCCCC2)NC(=O)[C@H](CCN)NC(=O)[C@@H](CC(C)C)NC(=O)[C@H](C)N(C)C1=O [Compound 1693] ({CH2CO}-NYD[Phe(3-Me)][Val(3-OH)][Bip]I[NMeA][dL][Dab][Cha][Val(3-OH)]TC[Dab]-NH2; thioether N-14) | 0.02 µM
3 | CC[C@H](C)[C@@H]1NC(=O)[C@H](Cc2ccc(-c3ccccc3)cc2)NC(=O)[C@H](C(C)(C)O)NC(=O)[C@H](Cc2cccc(C)c2)NC(=O)[C@H](CC(=O)O)NC(=O)[C@H](Cc2ccc(O)cc2)NC(=O)[C@H](CC(N)=O)NC(=O)CSC[C@@H](C(=O)N[C@H](C)C(N)=O)NC(=O)[C@H]([C@@H](C)O)NC(=O)[C@H](C(C)(C)O)NC(=O)[C@H](CC2CCCCC2)NC(=O)[C@H](CCN)NC(=O)[C@@H](CC(C)C)NC(=O)[C@H](C)N(C)C1=O [Compound 1694] ({CH2CO}-NYD[Phe(3-Me)][Val(3-OH)][Bip]I[NMeA][dL][Dab][Cha][Val(3-OH)]TC[dA]-NH2; thioether N-14) | 0.1 µM
4 | CC[C@H](C)[C@@H]1NC(=O)[C@H](Cc2ccc(-c3ccccc3)cc2)NC(=O)[C@H](C(C)C)NC(=O)[C@H](Cc2cccc(C)c2)NC(=O)[C@H](CC(=O)O)NC(=O)[C@H](Cc2ccc(O)cc2)NC(=O)[C@H](CC(N)=O)NC(=O)CSC[C@@H](C(=O)N[C@@H](CCN)C(N)=O)NC(=O)[C@H](CCC(=O)O)NC(=O)[C@H](C(C)(C)O)NC(=O)[C@H](CC2CCCCC2)NC(=O)[C@H](CCN)NC(=O)[C@@H](CC(C)C)NC(=O)[C@H](C)N(C)C1=O [Compound 1695] ({CH2CO}-NYD[Phe(3-Me)]V[Bip]I[NMeA][dL][Dab][Cha][Val(3-OH)]EC[Dab]-NH2; thioether N-14) | 0.01 µM
5 | CC[C@H](C)[C@@H]1NC(=O)[C@H](Cc2ccc(-c3ccccc3)cc2)NC(=O)[C@H](C(C)C)NC(=O)[C@H](Cc2cccc(C)c2)NC(=O)[C@H](CC(=O)O)NC(=O)[C@H](Cc2ccc(O)cc2)NC(=O)[C@H](CC(N)=O)NC(=O)CSC[C@@H](C(=O)N[C@H](C)C(N)=O)NC(=O)[C@H](CCC(=O)O)NC(=O)[C@H](C(C)(C)O)NC(=O)[C@H](CC2CCCCC2)NC(=O)[C@H](CCN)NC(=O)[C@@H](CC(C)C)NC(=O)[C@H](C)N(C)C1=O [Compound 1696] ({CH2CO}-NYD[Phe(3-Me)]V[Bip]I[NMeA][dL][Dab][Cha][Val(3-OH)]EC[dA]-NH2; thioether N-14) | 0.01 µM
6 | CC[C@H](C)[C@@H]1NC(=O)[C@H](Cc2ccc(-c3ccccc3)cc2)NC(=O)[C@H](C(C)(C)O)NC(=O)[C@H](Cc2cccc(C)c2)NC(=O)[C@H](CC(=O)O)NC(=O)[C@H](Cc2ccc(O)cc2)NC(=O)[C@H](CC(N)=O)NC(=O)CSC[C@@H](C(=O)N[C@H](C)C(N)=O)NC(=O)[C@H](CCC(=O)O)NC(=O)[C@H](C(C)C)NC(=O)[C@H](CC2CCCCC2)NC(=O)[C@H](CCN)NC(=O)[C@@H](CC(C)C)NC(=O)[C@H](C)N(C)C1=O [Compound 1698] ({CH2CO}-NYD[Phe(3-Me)][Val(3-OH)][Bip]I[NMeA][dL][Dab][Cha]VEC[dA]-NH2; thioether N-14) | 0.1 µM
7 | CC[C@H](C)[C@@H]1NC(=O)[C@H](Cc2ccc(-c3ccccc3)cc2)NC(=O)[C@H](C(C)(C)O)NC(=O)[C@H](Cc2cccc(C)c2)NC(=O)[C@H](CC(=O)O)NC(=O)[C@H](Cc2ccc(O)cc2)NC(=O)[C@H](CC(N)=O)NC(=O)CSC[C@@H](C(=O)N[C@@H](CCN)C(N)=O)NC(=O)[C@H](CCC(=O)O)NC(=O)[C@H](C(C)(C)O)NC(=O)[C@H](CC2CCCCC2)NC(=O)[C@H](CCN)NC(=O)[C@@H](CC(C)C)NC(=O)[C@H](C)N(C)C1=O [Compound 1699] ({CH2CO}-NYD[Phe(3-Me)][Val(3-OH)][Bip]I[NMeA][dL][Dab][Cha][Val(3-OH)]EC[Dab]-NH2; thioether N-14) | 0.04 µM
8 | CC[C@H](C)[C@@H]1NC(=O)[C@H](Cc2ccc(-c3ccccc3)cc2)NC(=O)[C@H](C(C)(C)O)NC(=O)[C@H](Cc2cccc(C)c2)NC(=O)[C@H](CC(=O)O)NC(=O)[C@H](Cc2ccc(O)cc2)NC(=O)[C@H](CC(N)=O)NC(=O)CSC[C@@H](C(=O)N[C@H](C)C(N)=O)NC(=O)[C@H](CCC(=O)O)NC(=O)[C@H](C(C)(C)O)NC(=O)[C@H](CC2CCCCC2)NC(=O)[C@H](CCN)NC(=O)[C@@H](CC(C)C)NC(=O)[C@H](C)N(C)C1=O [Compound 1700] ({CH2CO}-NYD[Phe(3-Me)][Val(3-OH)][Bip]I[NMeA][dL][Dab][Cha][Val(3-OH)]EC[dA]-NH2; thioether N-14) | 0.18 µM
9 | Cc1cccc(C[C@@H]2NC(=O)[C@H](CC(=O)O)NC(=O)[C@H](Cc3ccc(O)cc3)NC(=O)[C@H](CC(N)=O)NC(=O)CSC[C@@H](C(=O)N[C@@H](CCN)C(N)=O)NC(=O)[C@H]([C@@H](C)O)NC(=O)[C@H](C(C)(C)O)NC(=O)[C@H](CC3CCCCC3)NC(=O)[C@H](CCN)NC(=O)[C@@H](CC(C)C)NC(=O)[C@H](C)N(C)C(=O)[C@H](CCCNC(N)=O)NC(=O)[C@H](Cc3ccc(-c4ccccc4)cc3)NC(=O)[C@H](C(C)C)NC2=O)c1 [Compound 1701] ({CH2CO}-NYD[Phe(3-Me)]V[Bip][Cit][NMeA][dL][Dab][Cha][Val(3-OH)]TC[Dab]-NH2; thioether N-14) | 0.01 µM

The remaining molecules from weak to strong by IC50, led by results:

Row | IC50 | SMILES
10 | 0.08 µM | CC[C@H](C)[C@@H]1NC(=O)[C@H](Cc2ccc(-c3ccccc3)cc2)NC(=O)[C@H](C(C)(C)O)NC(=O)[C@H](Cc2cccc(C)c2)NC(=O)[C@H](CC(=O)O)NC(=O)[C@H](Cc2ccc(O)cc2)NC(=O)[C@H](CC(N)=O)NC(=O)CSC[C@@H](C(=O)N[C@H](C)C(N)=O)NC(=O)[C@H]([C@@H](C)O)NC(=O)[C@H](C(C)C)NC(=O)[C@H](CC2CCCCC2)NC(=O)[C@H](CCN)NC(=O)[C@@H](CC(C)C)NC(=O)[C@H](C)N(C)C1=O [Compound 1692] ({CH2CO}-NYD[Phe(3-Me)][Val(3-OH)][Bip]I[NMeA][dL][Dab][Cha]VTC[dA]-NH2; thioether N-14)
11 | 0.02 µM | CC[C@H](C)[C@@H]1NC(=O)[C@H](Cc2ccc(-c3ccccc3)cc2)NC(=O)[C@H](C(C)C)NC(=O)[C@H](Cc2cccc(C)c2)NC(=O)[C@H](CC(=O)O)NC(=O)[C@H](Cc2ccc(O)cc2)NC(=O)[C@H](CC(N)=O)NC(=O)CSC[C@@H](C(=O)N[C@@H](CCN)C(N)=O)NC(=O)[C@H]([C@@H](C)O)NC(=O)[C@H](C(C)(C)O)NC(=O)[C@H](CC2CCCCC2)NC(=O)[C@H](CCN)NC(=O)[C@@H](CC(C)C)NC(=O)[C@H](C)N(C)C1=O [Compound 1689] ({CH2CO}-NYD[Phe(3-Me)]V[Bip]I[NMeA][dL][Dab][Cha][Val(3-OH)]TC[Dab]-NH2; thioether N-14)
12 | 0.02 µM | CC[C@H](C)[C@@H]1NC(=O)[C@H](Cc2ccc(-c3ccccc3)cc2)NC(=O)[C@H](C(C)(C)O)NC(=O)[C@H](Cc2cccc(C)c2)NC(=O)[C@H](CC(=O)O)NC(=O)[C@H](Cc2ccc(O)cc2)NC(=O)[C@H](CC(N)=O)NC(=O)CSC[C@@H](C(=O)N[C@@H](CCN)C(N)=O)NC(=O)[C@H](CCC(=O)O)NC(=O)[C@H](C(C)C)NC(=O)[C@H](CC2CCCCC2)NC(=O)[C@H](CCN)NC(=O)[C@@H](CC(C)C)NC(=O)[C@H](C)N(C)C1=O [Compound 1697] ({CH2CO}-NYD[Phe(3-Me)][Val(3-OH)][Bip]I[NMeA][dL][Dab][Cha]VEC[Dab]-NH2; thioether N-14)
13 | 0.02 µM | Cc1cccc(C[C@@H]2NC(=O)[C@H](CC(=O)O)NC(=O)[C@H](Cc3ccc(O)cc3)NC(=O)[C@H](CC(N)=O)NC(=O)CSC[C@@H](C(=O)N[C@@H](CCN)C(N)=O)NC(=O)[C@H]([C@@H](C)O)NC(=O)[C@H](C(C)C)NC(=O)[C@H](CC3CCCCC3)NC(=O)[C@H](CCN)NC(=O)[C@@H](CC(C)C)NC(=O)[C@H](C)N(C)C(=O)[C@H](CCCNC(N)=O)NC(=O)[C@H](Cc3ccc(-c4ccccc4)cc3)NC(=O)[C@H](C(C)(C)O)NC2=O)c1 [Compound 1703] ({CH2CO}-NYD[Phe(3-Me)][Val(3-OH)][Bip][Cit][NMeA][dL][Dab][Cha]VTC[Dab]-NH2; thioether N-14)
14 | 0.01 µM | CC[C@H](C)[C@@H]1NC(=O)[C@H](Cc2ccc(-c3ccccc3)cc2)NC(=O)[C@H](C(C)C)NC(=O)[C@H](Cc2cccc(C)c2)NC(=O)[C@H](CC(=O)O)NC(=O)[C@H](Cc2ccc(O)cc2)NC(=O)[C@H](CC(N)=O)NC(=O)CSC[C@@H](C(=O)N[C@H](C)C(N)=O)NC(=O)[C@H]([C@@H](C)O)NC(=O)[C@H](C(C)(C)O)NC(=O)[C@H](CC2CCCCC2)NC(=O)[C@H](CCN)NC(=O)[C@@H](CC(C)C)NC(=O)[C@H](C)N(C)C1=O [Compound 1690] ({CH2CO}-NYD[Phe(3-Me)]V[Bip]I[NMeA][dL][Dab][Cha][Val(3-OH)]TC[dA]-NH2; thioether N-14)
